Data as given in DBAASP.
≈ marks a conversion by molar mass, not a printed value.

What was measured:
Test in all cases: ≥ marks a high value that may be exact or a test limit, other limits are often not marked, values filed in µg/mL are converted to µM
[1] = tested on: Staphylococcus epidermidis ATCC 12228
[2] = tested on: Pseudomonas aeruginosa ATCC 27853
Escherichia coli 780 = tested on: Escherichia coli 780
[3] = tested on: Klebsiella pneumoniae ATCC 700603(RifR)
[4] = tested on: Klebsiella pneumoniae ATCC 700603(ImiR)
[5] = tested on: Pseudomonas aeruginosa ATCC 27853(CipR)
[6] = tested on: Klebsiella pneumoniae ATCC 700603(GenR)
[7] = tested on: Acinetobacter baumannii ATCC 19606(CipR)
Staphylococcus aureus 75 = tested on: Staphylococcus aureus 75
[8] = tested on: Staphylococcus aureus ATCC 29213
[9] = tested on: Escherichia coli ATCC 25922(GenR)
[10] = tested on: Acinetobacter baumannii 9931
[11] = tested on: Acinetobacter baumannii ATCC 19606(RifR)
[12] = tested on: Escherichia coli ATCC 25922(ImiR)
[13] = tested on: Acinetobacter baumannii ATCC 19606
[14] = tested on: Escherichia coli ATCC 25922(CipR)
[15] = tested on: Pseudomonas aeruginosa ATCC 9027
Escherichia coli 804 = tested on: Escherichia coli 804
[16] = tested on: Staphylococcus aureus 113
[17] = tested on: Pseudomonas aeruginosa ATCC 27853(GenR)
[18] = tested on: Acinetobacter baumannii ATCC 19606(ImiR)
[19] = tested on: Pseudomonas aeruginosa 50
[20] = tested on: Pseudomonas aeruginosa ATCC 27853(ImiR)
[21] = tested on: Klebsiella pneumoniae ATCC 700603(CipR)
[22] = tested on: Pseudomonas aeruginosa ATCC 27853(RifR)
[23] = tested on: Klebsiella pneumoniae ATCC 700603
[24] = tested on: Acinetobacter baumannii ATCC 19606(GenR)
[25] = tested on: Escherichia coli ATCC 25922(RifR)
[26] = tested on: Bacillus subtilis ATCC 23857
[27] = tested on: Pseudomonas aeruginosa 73
[28] = tested on: Acinetobacter baumannii 97830
[29] = tested on: Escherichia coli DH5alpha
[30] = tested on: Zymomonas mobilis ATCC 10988
[31] = tested on: Escherichia coli BW25113 ΔsbmA
Escherichia coli BW25113 = tested on: Escherichia coli BW25113
[32] = tested on: Staphylococcus aureus ATCC 25923
[33] = tested on: Escherichia coli ATCC 25922

SMILES	MIC [1]	MIC [2]	MIC (Escherichia coli 780)	MIC (Staphylococcus aureus 75)	MIC [8]	MIC [10]	MIC [13]	MIC [15]	MIC (Escherichia coli 804)	MIC [16]	MIC [19]	MIC [23]	MIC [26]	also measured
NCCCC[C@H](NC(=O)[C@H](CCCN=C(N)N)NC(=O)[C@H](Cc1c[nH]c2ccccc12)NC(=O)[C@H](CCCCN)NC(=O)[C@H](CCCN=C(N)N)NC(=O)[C@H](Cc1c[nH]c2ccccc12)NC(=O)[C@H](CCCCN)NC(=O)[C@H](CCCN=C(N)N)NC(=O)[C@H](Cc1c[nH]c2ccccc12)NC(=O)[C@H](CCCCN)NC(=O)[C@H](CCCN=C(N)N)NC(=O)[C@@H](N)Cc1c[nH]c2ccccc12)C(N)=O [WRKWRKWRKWRK]	4 µM (≈ 7.6 µg/mL)	4 µM (≈ 7.6 µg/mL)	8 µM (≈ 15.2 µg/mL)	4 µM (≈ 7.6 µg/mL)	4 µM (≈ 7.6 µg/mL)	8 µM (≈ 15.2 µg/mL)	8 µM (≈ 15.2 µg/mL)	4 µM (≈ 7.6 µg/mL)	16 µM (≈ 30.4 µg/mL)	2 µM (≈ 3.8 µg/mL)	4 µM (≈ 7.6 µg/mL)	16 µM (≈ 30.4 µg/mL)	2 µM (≈ 3.8 µg/mL)	MIC [3]: 16 µM (≈ 30.4 µg/mL); MIC [4]: 16 µM (≈ 30.4 µg/mL); MIC [5]: 4 µM (≈ 7.6 µg/mL); MIC [6]: ≥ 32 µM; MIC [7]: 16 µM (≈ 30.4 µg/mL); MIC [9]: 8 µM (≈ 15.2 µg/mL); MIC [11]: 8 µM (≈ 15.2 µg/mL); MIC [12]: 16 µM (≈ 30.4 µg/mL); MIC [14]: 8 µM (≈ 15.2 µg/mL); MIC [17]: ≥ 32 µM; MIC [18]: 16 µM (≈ 30.4 µg/mL); MIC [20]: 8 µM (≈ 15.2 µg/mL); MIC [21]: ≥ 32 µM; MIC [22]: 4 µM (≈ 7.6 µg/mL); MIC [24]: 16 µM (≈ 30.4 µg/mL); MIC [25]: 16 µM (≈ 30.4 µg/mL)
C[C@H](N)C(=O)N[C@@H](CCCN=C(N)N)C(=O)N[C@@H](CCCN=C(N)N)C(=O)N[C@@H](Cc1c[nH]c2ccccc12)C(=O)N[C@@H](Cc1c[nH]c2ccccc12)C(=O)N[C@@H](Cc1c[nH]c2ccccc12)C(=O)N[C@@H](CCCN=C(N)N)C(=O)N[C@@H](CCCN=C(N)N)C(=O)N[C@@H](C)C(N)=O [ARRWWWRRA]	8 µM (≈ 10.7 µg/mL)	128 µM (≈ 172 µg/mL)	≥ 32 µM	16 µM (≈ 21.5 µg/mL)	32 µM (≈ 43 µg/mL)	≥ 64 µM	128 µM (≈ 172 µg/mL)	128 µM (≈ 172 µg/mL)	≥ 64 µM	16 µM (≈ 21.5 µg/mL)	≥ 128 µM	> 128 µM	8 µM (≈ 10.7 µg/mL)	MIC [27]: ≥ 128 µM; MIC [28]: ≥ 128 µM
CC[C@H](C)[C@H](NC(=O)[C@H](CCCN=C(N)N)NC(=O)[C@H](CCC(N)=O)NC(=O)[C@@H](NC(=O)[C@@H](NC(=O)[C@H](CCCN=C(N)N)NC(=O)[C@H](CCCCN)NC(=O)[C@@H](N)CC(C)C)[C@@H](C)CC)C(C)C)C(=O)N[C@@H](CCCCN)C(=O)N[C@@H](CC(=O)O)C(=O)N[C@@H](Cc1ccccc1)C(=O)N[C@@H](CC(C)C)C(=O)N[C@@H](CCCN=C(N)N)C(N)=O [LKRIVQRIKDFLR]														MIC [29]: ≥ 119 µM; MIC [30]: ≥ 119 µM
CC[C@H](C)[C@H](NC(=O)[C@H](CCCN=C(N)N)NC(=O)[C@@H](N)Cc1c[nH]c2ccccc12)C(=O)N[C@@H](CCCN=C(N)N)C(=O)N1CCC[C@H]1C(=O)N[C@@H](CCCN=C(N)N)C(=O)N1CCC[C@H]1C(=O)N1CCC[C@H]1C(=O)N[C@@H](CCCN=C(N)N)C(=O)N[C@@H](CC(C)C)C(=O)N1CCC[C@H]1C(=O)N[C@@H](CCCN=C(N)N)C(=O)N1CCC[C@H]1C(=O)N[C@@H](CCCN=C(N)N)C(=O)N1CCC[C@H]1C(=O)N[C@@H](CCCN=C(N)N)C(=O)O [WRIRPRPPRLPRPRPR]		> 64 µM					32 µM (≈ 67.4 µg/mL)					16 µM (≈ 33.7 µg/mL)		MIC [31]: 12 µM (≈ 25.3 µg/mL); MIC (Escherichia coli BW25113): 1 µM (≈ 2.11 µg/mL); MIC [32]: > 64 µM; MIC [33]: 1 µM (≈ 2.11 µg/mL)
